In ChEMBL document CHEMBL1914402, “Design, synthesis, and biological evaluation of 3,4-dihydroquinolin-2(1H)-one and 1,2,3,4-tetrahydroquinoline-based selective human neuronal nitric oxide synthase (nNOS) inhibitors” (J Med Chem, 2011):
Each block holds one compound with its values, some of them ahead of it.

Assays:
[1] = molecular target: Nitric oxide synthase, inducible (Homo sapiens, UniProt P35228); assay: Inhibition of human recombinant iNOS expressed in baculovirus infected Sf9 cells assessed as conversion of [3H]L-arginine to [3H]L-citrulline preincubated for 15 mins measured after 45 mins by liquid scintillation counting; type: cell-based
[2] = molecular target: Nitric oxide synthase 1 (Homo sapiens, UniProt P29475); assay: Inhibition of human recombinant nNOS expressed in baculovirus infected Sf9 cells assessed as conversion of [3H]L-arginine to [3H]L-citrulline preincubated for 15 mins measured after 45 mins by liquid scintillation counting; type: cell-based
[3] = molecular target: Cytochrome P450 2C9 (Homo sapiens, UniProt P11712); assay: Inhibition of human CYP2C9; type: ADME
[4] = molecular target: Cytochrome P450 2C19 (Homo sapiens, UniProt P33261); assay: Inhibition of human CYP2C19; type: ADME
[5] = molecular target: Cytochrome P450 3A4 (Homo sapiens, UniProt P08684); assay: Inhibition of human CYP3A4; type: ADME
[6] = molecular target: Cytochrome P450 2D6 (Homo sapiens, UniProt P10635); assay: Inhibition of human CYP2D6; type: ADME
[7] = molecular target: T1, Cytochrome P450 1A2 (Homo sapiens, UniProt P05177); assay: Inhibition of human CYP1A2; type: ADME
T1 sequence (P05177 whole entry): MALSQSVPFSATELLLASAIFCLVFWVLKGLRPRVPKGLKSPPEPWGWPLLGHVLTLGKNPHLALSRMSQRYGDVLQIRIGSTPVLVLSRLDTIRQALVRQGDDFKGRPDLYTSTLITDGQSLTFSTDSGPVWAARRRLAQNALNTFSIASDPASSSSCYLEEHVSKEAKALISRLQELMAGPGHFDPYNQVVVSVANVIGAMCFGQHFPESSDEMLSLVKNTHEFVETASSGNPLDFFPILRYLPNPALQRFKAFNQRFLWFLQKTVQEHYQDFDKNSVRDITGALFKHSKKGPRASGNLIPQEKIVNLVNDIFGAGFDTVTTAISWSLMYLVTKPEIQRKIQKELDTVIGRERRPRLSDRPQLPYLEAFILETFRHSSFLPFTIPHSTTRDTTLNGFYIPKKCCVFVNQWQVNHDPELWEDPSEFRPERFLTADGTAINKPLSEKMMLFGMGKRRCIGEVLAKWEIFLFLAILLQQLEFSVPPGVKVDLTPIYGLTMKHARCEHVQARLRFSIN

[8] = molecular target: T2, Nitric oxide synthase 3 (Homo sapiens, UniProt P29474); assay: Inhibition of human recombinant eNOS expressed in baculovirus infected Sf9 cells assessed as conversion of [3H]L-arginine to [3H]L-citrulline preincubated for 15 mins measured after 45 mins by liquid scintillation counting; type: cell-based
T2 sequence (P29474 whole entry): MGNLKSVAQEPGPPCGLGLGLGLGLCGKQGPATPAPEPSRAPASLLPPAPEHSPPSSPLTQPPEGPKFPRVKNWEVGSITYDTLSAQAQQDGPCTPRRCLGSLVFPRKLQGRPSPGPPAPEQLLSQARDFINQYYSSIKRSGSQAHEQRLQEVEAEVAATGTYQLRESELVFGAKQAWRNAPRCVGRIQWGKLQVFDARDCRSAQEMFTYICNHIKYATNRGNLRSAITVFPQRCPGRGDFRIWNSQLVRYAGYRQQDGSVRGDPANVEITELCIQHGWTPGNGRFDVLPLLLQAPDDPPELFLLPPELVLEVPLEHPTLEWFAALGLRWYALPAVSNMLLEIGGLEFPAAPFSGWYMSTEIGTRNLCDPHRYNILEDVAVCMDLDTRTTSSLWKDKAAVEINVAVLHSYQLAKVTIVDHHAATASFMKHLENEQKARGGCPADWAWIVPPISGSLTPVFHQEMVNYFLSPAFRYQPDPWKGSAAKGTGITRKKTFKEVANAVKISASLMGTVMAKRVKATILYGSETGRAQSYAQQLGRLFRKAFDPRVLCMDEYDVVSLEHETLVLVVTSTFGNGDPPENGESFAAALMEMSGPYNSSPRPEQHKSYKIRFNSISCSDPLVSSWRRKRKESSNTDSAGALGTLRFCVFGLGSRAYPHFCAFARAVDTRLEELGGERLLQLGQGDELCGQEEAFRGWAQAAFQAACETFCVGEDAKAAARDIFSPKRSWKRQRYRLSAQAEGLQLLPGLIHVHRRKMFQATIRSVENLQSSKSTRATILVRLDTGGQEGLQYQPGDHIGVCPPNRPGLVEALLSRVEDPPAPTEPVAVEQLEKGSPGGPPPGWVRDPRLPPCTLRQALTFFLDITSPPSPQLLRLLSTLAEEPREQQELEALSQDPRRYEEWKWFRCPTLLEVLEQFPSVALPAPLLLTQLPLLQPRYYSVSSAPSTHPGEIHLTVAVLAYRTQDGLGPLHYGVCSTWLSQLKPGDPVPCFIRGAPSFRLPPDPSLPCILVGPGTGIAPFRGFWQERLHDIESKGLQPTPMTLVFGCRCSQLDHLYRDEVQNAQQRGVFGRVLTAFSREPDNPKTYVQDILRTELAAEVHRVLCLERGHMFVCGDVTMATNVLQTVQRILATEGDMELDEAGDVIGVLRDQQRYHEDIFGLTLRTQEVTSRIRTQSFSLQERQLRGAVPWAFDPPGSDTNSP

Sequence of Cytochrome P450 2C19 (P33261 whole entry): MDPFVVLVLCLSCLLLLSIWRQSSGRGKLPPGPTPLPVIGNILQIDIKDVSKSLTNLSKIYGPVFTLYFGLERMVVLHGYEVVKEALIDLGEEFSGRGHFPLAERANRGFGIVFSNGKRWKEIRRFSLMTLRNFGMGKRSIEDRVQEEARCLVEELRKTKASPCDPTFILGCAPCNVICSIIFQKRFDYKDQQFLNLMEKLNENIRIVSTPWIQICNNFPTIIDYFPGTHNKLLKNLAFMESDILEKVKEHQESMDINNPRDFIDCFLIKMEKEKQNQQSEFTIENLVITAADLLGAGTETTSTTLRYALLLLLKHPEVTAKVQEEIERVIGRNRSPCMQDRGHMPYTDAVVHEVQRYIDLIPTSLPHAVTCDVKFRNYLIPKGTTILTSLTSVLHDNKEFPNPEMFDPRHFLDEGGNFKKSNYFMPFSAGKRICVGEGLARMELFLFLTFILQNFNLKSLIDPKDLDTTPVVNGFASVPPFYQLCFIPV
Sequence of Cytochrome P450 3A4 (P08684 whole entry): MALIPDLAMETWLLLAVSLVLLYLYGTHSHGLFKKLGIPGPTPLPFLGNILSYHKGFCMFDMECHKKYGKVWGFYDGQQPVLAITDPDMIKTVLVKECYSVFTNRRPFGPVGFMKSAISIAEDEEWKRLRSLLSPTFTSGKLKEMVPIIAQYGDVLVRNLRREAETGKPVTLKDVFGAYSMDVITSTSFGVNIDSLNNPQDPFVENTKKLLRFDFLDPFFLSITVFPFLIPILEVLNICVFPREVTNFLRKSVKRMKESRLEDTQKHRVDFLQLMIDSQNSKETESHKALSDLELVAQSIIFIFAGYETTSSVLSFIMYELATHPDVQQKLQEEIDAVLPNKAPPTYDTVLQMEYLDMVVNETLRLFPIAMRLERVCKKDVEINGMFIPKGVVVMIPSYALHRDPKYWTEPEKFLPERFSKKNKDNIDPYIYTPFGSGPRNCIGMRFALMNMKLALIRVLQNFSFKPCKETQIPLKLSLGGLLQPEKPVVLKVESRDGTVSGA
Sequence of Cytochrome P450 2D6 (P10635 whole entry): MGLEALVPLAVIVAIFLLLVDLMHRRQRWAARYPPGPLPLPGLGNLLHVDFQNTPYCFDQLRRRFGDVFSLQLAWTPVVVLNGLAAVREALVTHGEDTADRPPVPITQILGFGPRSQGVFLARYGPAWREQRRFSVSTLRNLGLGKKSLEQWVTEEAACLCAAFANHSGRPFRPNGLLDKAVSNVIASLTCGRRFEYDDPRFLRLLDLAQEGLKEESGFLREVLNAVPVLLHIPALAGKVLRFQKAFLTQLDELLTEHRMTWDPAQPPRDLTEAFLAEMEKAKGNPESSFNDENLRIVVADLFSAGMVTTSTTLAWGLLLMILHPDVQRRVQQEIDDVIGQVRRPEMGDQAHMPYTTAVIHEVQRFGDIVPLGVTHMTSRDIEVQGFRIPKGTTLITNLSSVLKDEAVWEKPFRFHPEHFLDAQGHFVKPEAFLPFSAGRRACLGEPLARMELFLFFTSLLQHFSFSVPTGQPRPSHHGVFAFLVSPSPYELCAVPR
Sequence of Cytochrome P450 2C9 (P11712 whole entry): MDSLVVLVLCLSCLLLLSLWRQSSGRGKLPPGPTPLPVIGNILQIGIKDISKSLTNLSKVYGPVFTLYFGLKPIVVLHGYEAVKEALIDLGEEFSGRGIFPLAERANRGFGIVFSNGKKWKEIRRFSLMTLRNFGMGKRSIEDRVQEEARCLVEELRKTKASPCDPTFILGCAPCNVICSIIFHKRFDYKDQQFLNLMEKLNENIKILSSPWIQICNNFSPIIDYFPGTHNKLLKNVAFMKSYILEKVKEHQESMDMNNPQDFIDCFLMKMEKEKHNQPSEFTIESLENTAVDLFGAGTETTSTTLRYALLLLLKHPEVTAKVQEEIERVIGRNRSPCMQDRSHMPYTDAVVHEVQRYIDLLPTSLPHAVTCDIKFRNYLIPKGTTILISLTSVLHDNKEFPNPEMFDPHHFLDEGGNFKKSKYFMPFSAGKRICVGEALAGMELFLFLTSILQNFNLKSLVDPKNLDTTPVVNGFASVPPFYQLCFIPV
Sequence of Nitric oxide synthase 1 (P29475 whole entry): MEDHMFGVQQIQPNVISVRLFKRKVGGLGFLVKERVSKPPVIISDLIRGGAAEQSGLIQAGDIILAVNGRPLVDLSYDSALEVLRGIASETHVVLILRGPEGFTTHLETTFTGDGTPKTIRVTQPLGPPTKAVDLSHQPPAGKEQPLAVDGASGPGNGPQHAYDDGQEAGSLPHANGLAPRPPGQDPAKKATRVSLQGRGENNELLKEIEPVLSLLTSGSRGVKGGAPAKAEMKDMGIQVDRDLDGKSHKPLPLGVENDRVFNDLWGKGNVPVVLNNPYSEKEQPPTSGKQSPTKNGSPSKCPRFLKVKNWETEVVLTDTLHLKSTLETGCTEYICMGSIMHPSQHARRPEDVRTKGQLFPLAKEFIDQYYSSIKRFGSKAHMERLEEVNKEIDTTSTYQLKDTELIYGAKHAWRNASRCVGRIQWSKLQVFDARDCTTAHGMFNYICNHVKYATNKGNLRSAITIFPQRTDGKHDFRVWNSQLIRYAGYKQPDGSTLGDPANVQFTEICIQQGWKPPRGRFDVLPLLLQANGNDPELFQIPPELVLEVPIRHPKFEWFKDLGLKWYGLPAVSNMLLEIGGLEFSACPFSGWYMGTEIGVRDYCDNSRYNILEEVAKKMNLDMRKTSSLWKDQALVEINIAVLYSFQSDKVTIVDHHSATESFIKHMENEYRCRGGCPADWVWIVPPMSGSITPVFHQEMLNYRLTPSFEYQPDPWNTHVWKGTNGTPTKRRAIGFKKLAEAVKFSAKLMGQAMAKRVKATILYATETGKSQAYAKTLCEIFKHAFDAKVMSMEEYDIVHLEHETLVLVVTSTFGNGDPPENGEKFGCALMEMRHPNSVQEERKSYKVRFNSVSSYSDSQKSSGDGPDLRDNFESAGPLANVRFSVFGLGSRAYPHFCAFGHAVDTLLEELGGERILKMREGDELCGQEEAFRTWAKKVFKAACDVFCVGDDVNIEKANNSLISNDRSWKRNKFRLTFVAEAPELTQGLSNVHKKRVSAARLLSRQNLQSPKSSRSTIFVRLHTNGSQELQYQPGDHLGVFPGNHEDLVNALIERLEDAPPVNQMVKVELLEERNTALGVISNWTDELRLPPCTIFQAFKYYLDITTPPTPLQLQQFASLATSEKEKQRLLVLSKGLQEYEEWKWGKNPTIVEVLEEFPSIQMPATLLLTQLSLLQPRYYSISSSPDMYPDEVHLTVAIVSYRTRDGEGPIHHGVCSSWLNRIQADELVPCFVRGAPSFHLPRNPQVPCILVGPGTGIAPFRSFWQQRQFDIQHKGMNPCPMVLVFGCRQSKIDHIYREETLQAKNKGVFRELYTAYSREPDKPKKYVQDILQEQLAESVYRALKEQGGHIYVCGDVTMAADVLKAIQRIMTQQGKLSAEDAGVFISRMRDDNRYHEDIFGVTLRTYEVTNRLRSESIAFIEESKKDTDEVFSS
Sequence of Nitric oxide synthase, inducible (P35228 whole entry): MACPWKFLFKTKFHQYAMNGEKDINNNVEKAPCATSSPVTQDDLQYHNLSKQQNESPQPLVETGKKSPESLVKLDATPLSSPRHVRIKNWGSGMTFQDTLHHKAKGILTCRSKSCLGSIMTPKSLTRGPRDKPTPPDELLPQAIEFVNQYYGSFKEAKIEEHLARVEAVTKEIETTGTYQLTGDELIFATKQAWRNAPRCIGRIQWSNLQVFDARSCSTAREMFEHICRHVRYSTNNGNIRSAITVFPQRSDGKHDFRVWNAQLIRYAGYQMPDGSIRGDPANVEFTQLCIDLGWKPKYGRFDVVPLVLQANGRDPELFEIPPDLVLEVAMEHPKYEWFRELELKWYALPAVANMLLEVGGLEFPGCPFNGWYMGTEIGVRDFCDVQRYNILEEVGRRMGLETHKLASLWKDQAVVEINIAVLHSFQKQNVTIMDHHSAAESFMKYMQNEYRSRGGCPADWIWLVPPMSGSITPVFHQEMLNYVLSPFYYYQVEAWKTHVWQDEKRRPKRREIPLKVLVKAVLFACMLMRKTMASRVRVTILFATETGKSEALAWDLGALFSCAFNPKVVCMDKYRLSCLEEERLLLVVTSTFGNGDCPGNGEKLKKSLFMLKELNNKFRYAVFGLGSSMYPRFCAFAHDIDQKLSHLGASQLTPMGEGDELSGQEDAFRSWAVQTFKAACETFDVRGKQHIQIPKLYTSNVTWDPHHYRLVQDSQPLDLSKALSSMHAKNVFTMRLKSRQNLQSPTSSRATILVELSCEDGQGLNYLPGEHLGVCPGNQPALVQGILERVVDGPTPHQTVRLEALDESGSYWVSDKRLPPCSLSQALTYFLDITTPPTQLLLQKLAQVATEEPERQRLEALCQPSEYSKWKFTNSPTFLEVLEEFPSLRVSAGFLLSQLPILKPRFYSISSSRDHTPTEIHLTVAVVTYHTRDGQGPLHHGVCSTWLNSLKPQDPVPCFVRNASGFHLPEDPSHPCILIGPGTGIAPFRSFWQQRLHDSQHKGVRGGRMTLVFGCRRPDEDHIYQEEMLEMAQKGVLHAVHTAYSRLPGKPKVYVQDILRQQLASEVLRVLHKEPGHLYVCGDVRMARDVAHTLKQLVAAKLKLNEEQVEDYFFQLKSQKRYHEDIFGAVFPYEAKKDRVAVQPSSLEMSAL

IC50 [1]: 11 µM | IC50 [2]: 0.16 µM
Compound: N=C(Nc1ccc2c(c1)CCC(=O)N2CCN1CCCC1)c1cccs1

Compound: N=C(Nc1ccc2c(c1)CCC(=O)N2CCCN1CCCC1)c1cccs1
IC50 [1]: > 100 µM | IC50 [2]: 1.22 µM

IC50 [3]: > 100 µM | IC50 [4]: > 100 µM | IC50 [5]: > 100 µM | IC50 [6]: > 100 µM | IC50 [7]: > 100 µM
Compound: CN(C)CCN1CCCc2cc(NC(=N)c3cccs3)ccc21

IC50 [1]: > 100 µM | IC50 [2]: 0.26 µM
Compound: CCN(CC)CCN1CCCc2cc(NC(=N)c3cccs3)ccc21

IC50 [8]: 9.5 µM | IC50 [2]: 0.086 µM
Compound: N=C(Nc1ccc2c(c1)CCCN2CCCN1CCCC1)c1cccs1

IC50 [1]: 12 µM
Compound: CCN(CC)CCN1C(=O)CCc2cc(NC(=N)c3cccs3)ccc21

IC50 [1]: > 100 µM
Compound: N=C(Nc1ccc2c(c1)CCC(=O)N2CCN1CCCCC1)c1cccs1

IC50 [2]: 0.093 µM
Compound: CN(C)CCN1CCCc2cc(NC(=N)c3cccs3)cc(F)c21

Compound: CN(C)CCN1C(=O)CCc2cc(NC(=N)c3cccs3)ccc21
IC50 [3]: > 100 µM | IC50 [4]: > 100 µM | IC50 [5]: > 100 µM | IC50 [6]: 12.2 µM | IC50 [1]: 35 µM | IC50 [7]: > 100 µM

IC50 [2]: 3.36 µM
Compound: CN(C)CCN1C(=O)CCc2cc(NC(=N)c3cccs3)cc(F)c21

IC50 [8]: 42.7 µM | IC50 [2]: 0.82 µM
Compound: CN1CCC(N2CCCc3cc(NC(=N)c4cccs4)ccc32)CC1

Compound: N=C(Nc1ccc2c(c1)CCCN2C1CCNCC1)c1cccs1
IC50 [3]: > 100 µM | IC50 [4]: 47.1 µM | IC50 [5]: > 100 µM | IC50 [6]: > 100 µM | IC50 [8]: 119 µM | IC50 [1]: > 100 µM | IC50 [2]: 0.54 µM | IC50 [7]: > 100 µM

IC50 [1]: > 100 µM | IC50 [2]: 1.05 µM
Compound: CN1CCCC1CCN1C(=O)CCc2cc(NC(=N)c3cccs3)ccc21 (racemic)
